Data from patent US20230085307A1, “PYRIDAZINONE COMPOUND AND HERBICIDE” (NISSAN CHEMICAL CORPORATION, priority 2019, published 2023).

Columns and labels:
redroot pigweed = assay: Test Example 5: herbicidal effect by foliage application, plastic box (Table 20, symbol N); assay type: in vivo, redroot pigweed (Amaranthus retroflexus); details: 320 g/ha, foliage application after 14-day growth, evaluated three weeks after application
Outline: (§1)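 Sow seeds spot-wise in sterilized diluvial soil; cover with ~1.5 cm soil. Grow 14 days in greenhouse, 25° C. to 30° C. Spray foliage with emulsion diluted to predetermined amount. Rate effect after 3 weeks.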

wild oat = assay: Test Example 5: herbicidal effect by foliage application, plastic box (Table 20, symbol I); assay type: in vivo, wild oat (Avena fatua); details: 320 g/ha
Outline: as §1

barnyard grass [1] = assay: Test Example 3: herbicidal effect by foliage application, Wagner pot (Table 18, symbol H); assay type: in vivo, barnyard grass (Echinochloa crus-galli)
Outline: (§2)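 Plants were sown in alluvial soil held under 0.1–0.5 cm standing water and grown 14 days in a greenhouse at 25–30 °C. An emulsifiable formulation, water-diluted to the set dose, was then sprayed onto the foliage, and effects were scored three weeks later using previously defined criteria.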

oval-leafed pondweed = assay: Test Example 1: herbicidal activity, application before weed generation under submerged conditions (Table 16, symbol C); assay type: in vivo, oval-leafed pondweed (Monochoria vaginalis); details: amount of applied herbicide 320 g/ha
Outline: (§3)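 Submerged Wagner pots (alluvial soil, 4 cm water) sown with weed seeds and planted with 2.5-leaf rice seedlings; emulsifiable concentrate diluted in water applied to water surface on sowing day. Held in greenhouse at 25-30 °C; injury scored 0-5 by herbicidal rate after three weeks.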

velvetleaf = assay: Test Example 5: herbicidal effect by foliage application, plastic box (Table 20, symbol M); assay type: in vivo, velvetleaf (Abutilon theophrasti); details: 320 g/ha
Outline: as §1

southern crabgrass = assay: Test Example 5: herbicidal effect by foliage application, plastic box (Table 20, symbol F); assay type: in vivo, southern crabgrass (Digitaria ciliaris); details: 320 g/ha
Outline: as §1

persian speedwell = assay: Test Example 5: herbicidal effect by foliage application, plastic box (Table 20, symbol R); assay type: in vivo, Persian speedwell (Veronica persica); details: 320 g/ha
Outline: as §1

lambsquarters = assay: Test Example 5: herbicidal effect by foliage application, plastic box (Table 20, symbol O); assay type: in vivo, lambsquarters (Chenopodium album); details: 320 g/ha
Outline: as §1

green foxtail = assay: Test Example 5: herbicidal effect by foliage application, plastic box (Table 20, symbol G); assay type: in vivo, green foxtail (Setaria viridis); details: 320 g/ha
Outline: as §1

chickweed = assay: Test Example 5: herbicidal effect by foliage application, plastic box (Table 20, symbol P); assay type: in vivo, common chickweed (Stellaria media); details: 320 g/ha
Outline: as §1

Japanese bulrush = assay: Test Example 1: herbicidal activity, application before weed generation under submerged conditions (Table 16, symbol B); assay type: in vivo, Japanese bulrush (Schoenoplectus juncoides); details: amount of applied herbicide 320 g/ha
Outline: as §3

Italian ryegrass = assay: Test Example 5: herbicidal effect by foliage application, plastic box (Table 20, symbol K); assay type: in vivo, Italian ryegrass (Lolium multiflorum); details: 320 g/ha
Outline: as §1

rice flat sedge = assay: Test Example 3: herbicidal effect by foliage application, Wagner pot (Table 18, symbol E); assay type: in vivo, rice flat sedge (Cyperus iria)
Outline: as §2

blackgrass = assay: Test Example 5: herbicidal effect by foliage application, plastic box (Table 20, symbol J); assay type: in vivo, blackgrass (Alopecurus myosuroides); details: 320 g/ha
Outline: as §1

barnyard grass [2] = assay: Test Example 5: herbicidal effect by foliage application, plastic box (Table 20, symbol H); assay type: in vivo, barnyard grass (Echinochloa crus-galli); details: 320 g/ha
Outline: as §1

Chinese sprangletop = assay: Test Example 3: herbicidal effect by foliage application, Wagner pot (Table 18, symbol D); assay type: in vivo, chinese sprangletop (Leptochloa chinensis)
Outline: as §2

late watergrass = assay: Test Example 1: herbicidal activity, application before weed generation under submerged conditions (Table 16, symbol A); assay type: in vivo, late watergrass (Echinochloa oryzicola); details: amount of applied herbicide 320 g/ha
Outline: as §3

windgrass = assay: Test Example 5: herbicidal effect by foliage application, plastic box (Table 20, symbol L); assay type: in vivo, windgrass (Apera spica-venti); details: foliage application, 320 g/ha, three weeks after application
Outline: as §1

[3] = foliage application after 14-day growth, evaluated three weeks after application
[4] = foliage application, three weeks after application
[5] = amount of applied herbicide 320 g/ha

Compound: Cc1nn(C)c(=O)c(-c2c(-c3ccc(C#N)cc3)sc3c(Cl)cccc23)c1O [4-031]
- herbicidal effect on N: redroot pigweed (evaluation grade 0-5) (redroot pigweed): 5 (Herbicidal rate of 90% or more (almost completely withered))
- herbicidal effect on I: wild oat (evaluation grade 0-5) (wild oat; [3]): 0 (Herbicidal rate of 5% or less (almost no effect))
- herbicidal effect on barnyard grass (H) (barnyard grass [1]; 320 g/ha): 3 (Herbicidal rate of 40% or more and less than 70%)
- Herbicidal effect, C: oval-leafed pondweed (oval-leafed pondweed): 0 (Herbicidal rate of 5% or less (almost no effect))
- herbicidal effect on M: velvetleaf (evaluation grade 0-5) (velvetleaf; [3]): 3 (Herbicidal rate of 40% or more and less than 70%)
- herbicidal effect on F: southern crabgrass (evaluation grade 0-5) (southern crabgrass; [3]): 0 (Herbicidal rate of 5% or less (almost no effect))
- herbicidal effect on R: persian speedwell (evaluation grade 0-5) (persian speedwell; [3]): 0 (Herbicidal rate of 5% or less (almost no effect))
- herbicidal effect on O: lambsquarters (evaluation grade 0-5) (lambsquarters; [3]): 4 (Herbicidal rate of 70% or more and less than 90%)
- herbicidal effect on G: green foxtail (evaluation grade 0-5) (green foxtail; [3]): 2 (Herbicidal rate of 20% or more and less than 40%)
- herbicidal effect on P: chickweed (evaluation grade 0-5) (chickweed; [3]): 5 (Herbicidal rate of 90% or more (almost completely withered))
- Herbicidal effect, B: Japanese bulrush (Japanese bulrush): 0 (Herbicidal rate of 5% or less (almost no effect))
- herbicidal effect on K: Italian ryegrass (evaluation grade 0-5) (Italian ryegrass; [3]): 3 (Herbicidal rate of 40% or more and less than 70%)
- herbicidal effect on rice flat sedge (E) (rice flat sedge; 320 g/ha): 5 (Herbicidal rate of 90% or more (almost completely withered))
- herbicidal effect on J: blackgrass (evaluation grade 0-5) (blackgrass; [3]): 0 (Herbicidal rate of 5% or less (almost no effect))
- herbicidal effect on H: barnyard grass (evaluation grade 0-5) (barnyard grass [2]; [3]): 0 (Herbicidal rate of 5% or less (almost no effect))
- herbicidal effect on Chinese sprangletop (D) (Chinese sprangletop; 320 g/ha): 3 (Herbicidal rate of 40% or more and less than 70%)
- Herbicidal effect, A: late watergrass (late watergrass): 2 (Herbicidal rate of 20% or more and less than 40%)

Compound: CCc1nn(C)c(=O)c(-c2c(-c3ccccc3OC)sc3ccc(F)cc23)c1O [2-414]
- L: windgrass, herbicidal effect grade (windgrass): 3 (Herbicidal rate of 40% or more and less than 70%)
- I: wild oat, herbicidal effect grade (wild oat; [4]): 0 (Herbicidal rate of 5% or less (almost no effect))
- herbicidal effect on H: barnyard grass (barnyard grass [1]; [5]): 4 (Herbicidal rate of 70% or more and less than 90%)
- Herbicidal effect, C: oval-leafed pondweed (oval-leafed pondweed): 2 (Herbicidal rate of 20% or more and less than 40%)
- M: velvetleaf, herbicidal effect grade (velvetleaf; [4]): 3 (Herbicidal rate of 40% or more and less than 70%)
- F: southern crabgrass, herbicidal effect grade (southern crabgrass; [4]): 1 (Herbicidal rate of 5% or more and less than 20%)
- R: persian speedwell, herbicidal effect grade (persian speedwell; [4]): 5 (Herbicidal rate of 90% or more (almost completely withered))
- O: lambsquarters, herbicidal effect grade (lambsquarters; [4]): 3 (Herbicidal rate of 40% or more and less than 70%)
- G: green foxtail, herbicidal effect grade (green foxtail; [4]): 2 (Herbicidal rate of 20% or more and less than 40%)
- P: chickweed, herbicidal effect grade (chickweed; [4]): 5 (Herbicidal rate of 90% or more (almost completely withered))
- Herbicidal effect, B: Japanese bulrush (Japanese bulrush): 3 (Herbicidal rate of 40% or more and less than 70%)
- K: Italian ryegrass, herbicidal effect grade (Italian ryegrass; [4]): 1 (Herbicidal rate of 5% or more and less than 20%)
- herbicidal effect on E: rice flat sedge (rice flat sedge; [5]): 3 (Herbicidal rate of 40% or more and less than 70%)
- J: blackgrass, herbicidal effect grade (blackgrass; [4]): 2 (Herbicidal rate of 20% or more and less than 40%)
- H: barnyard grass, herbicidal effect grade (barnyard grass [2]; [4]): 3 (Herbicidal rate of 40% or more and less than 70%)
- herbicidal effect on D: Chinese sprangletop (Chinese sprangletop; [5]): 3 (Herbicidal rate of 40% or more and less than 70%)
- Herbicidal effect, A: late watergrass (late watergrass): 2 (Herbicidal rate of 20% or more and less than 40%)
